Experimental data published in ChEMBL document CHEMBL1201862, “PubChem BioAssay data set” (2004).
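Dose response: 5 concentrations. Exposure: 48 h. Format: 96-well plates. Endpoint: linear interpolation; highest concentration if not reached. Here, GI50 denotes the concentration required for 50% inhibition of growth.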 The source made the active and inactive calls. No stated cut-off is given here; in the data, active = GI50 up to about 1.1 µM and inactive = higher.

Assays:
Experiment in all cases: NCI tumour cell line growth inhibition, 48 h
[1] = test system: NCI-H460
[2] = test system: MOLT-4
[3] = test system: U-251
[4] = test system: SK-MEL-28
[5] = test system: Malme-3M
[6] = test system: MCF7
[7] = test system: OVCAR-5
[8] = test system: A549
[9] = test system: SF-539
[10] = test system: EKVX
[11] = test system: A498
[12] = test system: SK-OV-3
[13] = test system: CAKI-1
[14] = test system: MDA-MB-435
[15] = test system: NCI-H522
[16] = test system: M14
[17] = test system: MDA-N
[18] = test system: HCT-116
[19] = test system: SNB-19
[20] = test system: RPMI-8226

Row | Structure (SMILES) | GI50 [1] | GI50 [2] | GI50 [3] | GI50 [4] | GI50 [5] | GI50 [6] | GI50 [7] | GI50 [8] | GI50 [9] | GI50 [10] | GI50 [11] | GI50 [12] | GI50 [13] | GI50 [14] | GI50 [15] | GI50 [16] | GI50 [17] | GI50 [18] | GI50 [19] | GI50 [20]
1 | O=C(N/C(=C\c1ccccc1)c1nc2ccccc2c(=O)o1)c1ccccc1 | > 72.6 µM (inactive) | > 100 µM (inactive) | 33.8 µM (inactive) | > 100 µM (inactive) | > 100 µM (inactive) | 5.38 µM (inactive) | > 88.9 µM (inactive) | > 100 µM (inactive) | > 53.7 µM (inactive) | 57.3 µM (inactive) | > 100 µM (inactive) | 59.2 µM (inactive) | > 78.3 µM (inactive) | 23.6 µM (inactive) | 38.9 µM (inactive) | > 79.6 µM (inactive) | > 53 µM (inactive) | > 55.3 µM (inactive) | 27.3 µM (inactive) | > 100 µM (inactive)
2 | [O-]c1c[n+](CC[n+]2cc([O-])on2)no1 | > 100 µM (inactive) | > 100 µM (inactive) | > 100 µM (inactive) | > 100 µM (inactive) | > 100 µM (inactive) | > 100 µM (inactive) | > 100 µM (inactive) | > 100 µM (inactive) |  | > 100 µM (inactive) | > 100 µM (inactive) | > 100 µM (inactive) | > 100 µM (inactive) | > 100 µM (inactive) | > 100 µM (inactive) | > 100 µM (inactive) | > 100 µM (inactive) | > 100 µM (inactive) | > 100 µM (inactive) | > 100 µM (inactive)
3 | OC1C[C@H](c2ccccc2)C2(C(O)c3ccccc3C2O)[C@@H](c2ccccc2)C1 (stereo partly drawn) | > 100 µM (inactive) | > 100 µM (inactive) | > 100 µM (inactive) | > 100 µM (inactive) | > 100 µM (inactive) | > 100 µM (inactive) | > 100 µM (inactive) | > 100 µM (inactive) | > 100 µM (inactive) | > 100 µM (inactive) | > 100 µM (inactive) | > 100 µM (inactive) | > 100 µM (inactive) | > 100 µM (inactive) | 32.4 µM (inactive) | > 100 µM (inactive) | > 100 µM (inactive) | > 100 µM (inactive) | > 100 µM (inactive) | 83.2 µM (inactive)
4 | Nc1cc2c(c3ccccc13)C(CCl)CN2C(=O)c1cc2cc(NC(=O)c3cc4ccccc4o3)ccc2[nH]1 (stereo not drawn) | 0.000308 µM (active) | 0.00046 µM (active) | 0.00281 µM (active) | 0.0123 µM (active) | 0.00213 µM (active) | 0.00075 µM (active) | 0.00753 µM (active) | 0.000891 µM (active) | 0.11 µM (active) | 0.11 µM (active) | 0.00184 µM (active) | 0.11 µM (active) | 0.000301 µM (active) | 0.0055 µM (active) | 0.000925 µM (active) | 0.00455 µM (active) | 0.00817 µM (active) | 0.00254 µM (active) | 0.0124 µM (active) | 0.228 µM (active)
5 | O[C@@H]1CCC[C@@H]2NC[C@@H](c3ccc4c(c3)OCO4)[C@H]12 | > 100 µM (inactive) | > 100 µM (inactive) | > 100 µM (inactive) | > 100 µM (inactive) | > 100 µM (inactive) | > 100 µM (inactive) | > 100 µM (inactive) | > 100 µM (inactive) | > 100 µM (inactive) | > 100 µM (inactive) | > 100 µM (inactive) | > 100 µM (inactive) | > 100 µM (inactive) | > 100 µM (inactive) | > 100 µM (inactive) | > 100 µM (inactive) | > 100 µM (inactive) |  | > 100 µM (inactive) | > 100 µM (inactive)
6 | COc1cc(/C=C2\CCC(C)C3=C(c4cc(OC)c(OC)c(OC)c4)C(C#N)=C(N)OC32)cc(OC)c1OC (stereo not drawn) | 3.57 µM (inactive) | 1.84 µM (inactive) | 3.08 µM (inactive) | 2.85 µM (inactive) | 2.59 µM (inactive) | 2.24 µM (inactive) | 6.56 µM (inactive) | 3.46 µM (inactive) | 2.26 µM (inactive) | 3.08 µM (inactive) | 4 µM (inactive) | 5.32 µM (inactive) | 4.73 µM (inactive) | 2.76 µM (inactive) | 2.42 µM (inactive) | 2.23 µM (inactive) | 2.47 µM (inactive) | 2.2 µM (inactive) | 11.6 µM (inactive) | 1.63 µM (inactive)
7 | O=C1Nc2ccccc2S/C1=C\c1cccc(C(F)(F)F)c1 | > 100 µM (inactive) | > 100 µM (inactive) | > 100 µM (inactive) | > 100 µM (inactive) | > 100 µM (inactive) | 0.467 µM (active) | > 100 µM (inactive) | > 100 µM (inactive) | > 100 µM (inactive) | > 100 µM (inactive) | > 100 µM (inactive) | > 100 µM (inactive) | 3.01 µM (inactive) | > 100 µM (inactive) | > 100 µM (inactive) | > 100 µM (inactive) | > 100 µM (inactive) | > 100 µM (inactive) | > 100 µM (inactive) | > 100 µM (inactive)
